Results from patent US8618143B1, “Selective neuronal nitric oxide synthase inhibitors with azole substituents” (Northwestern University, priority 2010, dated 2013).

Experiments:
[1] = pKa of the free azole ring of the side chain; cited from earlier work
[2] = target: iNOS (Mus musculus, UniProt P29477); assay: NOS inhibition assay (literature protocols), inducible isoform; type: biochemical; conditions: for selectivity i/n: ratio KI iNOS / KI nNOS
[3] = target: nNOS (Rattus norvegicus, UniProt P29476); assay: NOS inhibition assay (literature protocols), neuronal isoform; type: biochemical; conditions: for potency (in words): comment on Table 2
From the text: Compounds 3a (not shown, below), 4a, 3c, and 4c were synthesized compounds for purpose of illustration, and 4a, 3c and 4c have been tested using literature protocols. (See, e.g., example 51 of the aforementioned incorporated '790 patent, example 12 of co-pending application Ser. No. 13/250,554 filed Sep. 30, 2011, also incorporated herein by reference in its entirety and, respectively, the references cited therein.) The activities are shown in Table 2.

[4] = target: eNOS (Bos taurus, UniProt P29473); assay: NOS inhibition assay (literature protocols), endothelial isoform; type: biochemical; conditions: for selectivity e/n: ratio KI eNOS / KI nNOS

Ki [2] [µM]	selectivity i/n [2]	Ki [3] [µM]	potency (in words) [3]	Ki [4] [µM]	selectivity e/n [4]	SMILES	approximate ring pKa [1]
–	–	–	–	–	–	NCCn1ccnc1 [Compound 5e]	>7.1
15	12.7	1.18	moderate potency	4.23	3.58	Cc1cc(N)nc(C[C@H]2CNC[C@H]2OCCNCCc2c[nH]cn2)c1 [Compound 4a]	–
–	–	–	–	–	–	NCCc1nccs1 [Compound 5c]	2.5
–	–	–	–	–	–	Cn1cncc1CCN [Compound 5f]	>7.1
–	–	–	–	–	–	NCCc1c[nH]cn1 [Compound 5a]	7.1
23.1	32.3	0.716	highly potent	0.058	0.081	Cc1cc(N)nc(C[C@@H]2CNC[C@@H]2OCCNCCc2nccs2)c1 [Compound 3c]	–
34.4	782	0.044	moderate potency	9.81	223	Cc1cc(N)nc(C[C@H]2CNC[C@H]2OCCNCCc2nccs2)c1 [Compound 4c]	–
–	–	–	–	–	–	Cn1cnc(CCN)c1 [Compound 5g]	>7.1
